Source: patent US20240174723A1, “STAPLED ANTIMICROBIAL PEPTIDES (STAMPS) AND USES THEREOF” (Lytica Therapeutics, Inc., priority 2021, published 2024)
Converted amounts (≈) assume the structure as drawn. Positions of bridges follow the written chain, without caps; N, C: chain ends. Non-standard residues stand in square brackets, D forms with d. Residues, ends and D or L forms follow the SMILES beside them. S5 = C=CCCC[C@](C)(N)C(=O)O; Dap = NC[C@H](N)C(=O)O

What was measured:
[1] = system: E. coli; format: cell-based, Escherichia coli
Method: (§1) Antimicrobial Activity Assay: The following microbroth dilution protocol was adapted from CLSI to determine the minimum inhibitory concentration (MIC) of StAMPs. Briefly, Mueller-Hinton broth (MHB) or cation-adjusted Mueller-Hinton broth (MHB II) was prepared and autoclaved. Then, a colony of bacterial cells was picked and grown overnight in broth at 37° C. and then diluted and allowed to grow again for 3-4 hours. Serial dilutions of peptide stocks in water (10 μl) were prepared using clear round-bottom polypropylene 96-well plates. Then 90 μl of bacteria in broth was added to give a final inoculum of 5×10^5 CFU/ml. The plates were then covered with porous tape to reduce evaporation and incubated for 20-24 hours at 37° C. The MIC was the minimum peptide concentration at which no visible bacterial growth was observed.
(§2) Renal toxicity was measured after 90 minutes of incubation, while liver toxicity was measured after 48 hours of incubation with StAMPs. N/A=not tested. The following apply to all peptides (i.e., StAMPs) listed in Tables A-C: Crosslinks (X^1—X^2 and X^3—X^4): (alk); N-terminus: —NH2; C-terminus: amidated with —NH2; counterion: Cl^−. The following apply to all peptides (i.e., StAMPs) listed in Table D: Crosslinks (X^1—X^2 and X^3—X^4): (alk); N-terminus: —NH2; C-terminus: as shown in table; counterion: Cl^−.

[2] = system: A. baumannii; format: cell-based, Acinetobacter baumannii
Method: as §1, §2

[3] = system: P. aeruginosa; format: cell-based, Pseudomonas aeruginosa
Method: as §1, §2
StAMP Micelle Formulation: DSPE-MPEG(2000) was suspended in buffered saline at 50-100 mg/mL overnight. StAMP stock solutions at 5-20 mg/mL in buffered saline were prepared and equal volumes of micelle and StAMP stock solution were mixed at the desired StAMP:Lipid ratio. Suspensions were allowed to sit for 5-10 minutes at room temperature before being used in in vitro and in vivo assays. […]

[4] = system: K. pneumoniae; format: cell-based, Klebsiella pneumoniae
Method: as §1, §2

[5] = system: S. aureus; format: cell-based, Staphylococcus aureus
Method: as §1, §2

[6] = in vitro; format: cell-based; conditions: human, Inhibitory Concentration at 50% Cytotoxicity (IC50) Human Liver Cells (HepG2)
Method: Cell culture: RPTEC were maintained in MEM media supplemented with growth factors. HEPG2 cell line was maintained in Eagle's Minimum Essential Medium (EMEM) supplemented with fetal bovine serum to a final concentration of 10%.
48 hours cytotoxicity assay: Cells were plated in a 96-well format, and after 4 hour incubation to allow attachment, serial dilutions of StAMPs from a 5 mg/mL water stock, or vehicle, were then added to the cells in a final volume of 100 μl. After incubating at 37° C. for 48 hours, 100 μl of CellTiter-Glo® reagent was added to the cells, and the plates were incubated 10 minutes at room temperature. Luminescence was then measured on a microplate reader.
as §2

| Structure (SMILES) | Minimum Inhibitory Concentration (MIC) E. coli [1] [µg/mL] | Minimum Inhibitory Concentration (MIC) A. baumannii [2] [µg/mL] | Minimum Inhibitory Concentration (MIC) P. aeruginosa [3] [µg/mL] | Minimum Inhibitory Concentration (MIC) K. pneumoniae [4] [µg/mL] | Minimum Inhibitory Concentration (MIC) S. aureus [5] [µg/mL] | IC50 at 48 hours [6] [µg/mL] |
| --- | --- | --- | --- | --- | --- | --- |
| CC(C)[C@@H]1NC(=O)[C@@](C)(NC(=O)[C@H](C)NC(=O)[C@H](CCCCN)NC(=O)CNC(=O)[C@H](Cc2ccccc2)NC(=O)[C@H](CCCCN)NC(=O)[C@H](CCCCN)NC(=O)[C@H](CCCCN)NC(=O)[C@H](CCCCN)NC(=O)[C@H](CN)NC(=O)[C@]2(C)CCCC=CCCC[C@](C)(NC(=O)CN)C(=O)NCC(=O)N[C@@H](CCCCN)C(=O)N[C@@H](Cc3ccccc3)C(=O)N2)CCCC=CCCC[C@@](C)(C(=O)N[C@@H](C)C(=O)N[C@@H](CCCCN)C(=O)N[C@@H](CCCCN)C(=O)NCC(=O)NCC(=O)N[C@@H](CCC(=O)O)C(N)=O)NC(=O)[C@H](CCC(=O)O)NC(=O)CNC1=O [compound 80] (H-G[S5]GKF[S5][Dap]KKKKFGKA[S5]VGE[S5]AKKGGE-NH2; staple 2-6, 16-20) | 8 | 8 | 4 | >64 | >64 | > 200 |
| CC(C)[C@@H]1NC(=O)[C@@](C)(NC(=O)[C@H](C)NC(=O)[C@H](CCCCN)NC(=O)CNC(=O)[C@H](Cc2ccccc2)NC(=O)[C@H](CCCCN)NC(=O)[C@H](CCCCN)NC(=O)[C@H](CN)NC(=O)[C@H](CCCCN)NC(=O)[C@H](CCCCN)NC(=O)[C@]2(C)CCCC=CCCC[C@](C)(NC(=O)CN)C(=O)NCC(=O)N[C@@H](CCCCN)C(=O)N[C@@H](Cc3ccccc3)C(=O)N2)CCCC=CCCC[C@@](C)(C(=O)N[C@@H](C)C(=O)N[C@@H](CCCCN)C(=O)N[C@@H](CCCCN)C(=O)NCC(=O)NCC(=O)N[C@@H](CCC(=O)O)C(N)=O)NC(=O)[C@H](CCC(=O)O)NC(=O)CNC1=O [compound 81] (H-G[S5]GKF[S5]KK[Dap]KKFGKA[S5]VGE[S5]AKKGGE-NH2; staple 2-6, 16-20) | 8 | 4 | 16 | 64 | >64 | > 200 |
| CC(C)[C@@H]1NC(=O)[C@@](C)(NC(=O)[C@H](C)NC(=O)[C@H](CCCCN)NC(=O)CNC(=O)[C@H](Cc2ccccc2)NC(=O)[C@H](CCCCN)NC(=O)[C@H](CCCCN)NC(=O)[C@H](CN)NC(=O)[C@H](CCCCN)NC(=O)[C@H](CN)NC(=O)[C@]2(C)CCCC=CCCC[C@](C)(NC(=O)CN)C(=O)NCC(=O)N[C@@H](CCCCN)C(=O)N[C@@H](Cc3ccccc3)C(=O)N2)CCCC=CCCC[C@@](C)(C(=O)N[C@@H](C)C(=O)N[C@@H](CCCCN)C(=O)N[C@@H](CCCCN)C(N)=O)NC(=O)[C@H](CCC(=O)O)NC(=O)CNC1=O [compound 82] (H-G[S5]GKF[S5][Dap]K[Dap]KKFGKA[S5]VGE[S5]AKK-NH2; staple 2-6, 16-20) | 4 | 1 | 2 | 64 | >64 | 190 (≈ 76.6 µM) |
| CC(C)[C@@H]1NC(=O)[C@@](C)(NC(=O)[C@H](C)NC(=O)[C@H](CCCCN)NC(=O)CNC(=O)[C@H](Cc2ccccc2)NC(=O)[C@H](CCCCN)NC(=O)[C@H](CCCCN)NC(=O)[C@H](CN)NC(=O)[C@H](CCCCN)NC(=O)[C@H](CN)NC(=O)[C@]2(C)CCCC=CCCC[C@](C)(NC(=O)CN)C(=O)NCC(=O)N[C@@H](CCCCN)C(=O)N[C@@H](Cc3ccccc3)C(=O)N2)CCCC=CCCC[C@@](C)(C(=O)N[C@@H](C)C(=O)N[C@@H](CCCCN)C(=O)N[C@@H](CCCCN)C(=O)NCC(=O)NCC(=O)N[C@@H](CCC(=O)O)C(N)=O)NC(=O)[C@H](CCC(=O)O)NC(=O)CNC1=O [compound 83] (H-G[S5]GKF[S5][Dap]K[Dap]KKFGKA[S5]VGE[S5]AKKGGE-NH2; staple 2-6, 16-20) | 64 | 64 | 32 | >64 | >64 | > 200 |
| CC(C)[C@@H]1NC(=O)[C@@](C)(NC(=O)[C@H](C)NC(=O)[C@H](CCCCN)NC(=O)CNC(=O)[C@H](Cc2ccccc2)NC(=O)[C@H](CCCCN)NC(=O)[C@H](CCCCN)NC(=O)[C@H](CCCCN)NC(=O)[C@H](CO)NC(=O)[C@H](CN)NC(=O)[C@]2(C)CCCC=CCCC[C@](C)(NC(=O)CN)C(=O)NCC(=O)N[C@@H](CCCCN)C(=O)N[C@@H](Cc3ccccc3)C(=O)N2)CCCC=CCCC[C@@](C)(C(=O)N[C@@H](C)C(=O)N[C@@H](CCCCN)C(=O)N[C@@H](CCCCN)C(N)=O)NC(=O)[C@H](CCC(=O)O)NC(=O)CNC1=O [compound 85] (H-G[S5]GKF[S5][Dap]SKKKFGKA[S5]VGE[S5]AKK-NH2; staple 2-6, 16-20) | 2 | 0.5 | 2 | 16 | 64 | > 200 |
| CC(C)[C@@H]1NC(=O)[C@@](C)(NC(=O)[C@H](C)NC(=O)[C@H](CCCCN)NC(=O)[C@H](CO)NC(=O)[C@H](Cc2ccccc2)NC(=O)[C@H](CCCCN)NC(=O)[C@H](CCCCN)NC(=O)[C@H](CCCCN)NC(=O)[C@H](CCCCN)NC(=O)[C@H](CN)NC(=O)[C@]2(C)CCCC=CCCC[C@](C)(NC(=O)CN)C(=O)NCC(=O)N[C@@H](CCCCN)C(=O)N[C@@H](Cc3ccccc3)C(=O)N2)CCCC=CCCC[C@@](C)(C(=O)N[C@@H](C)C(=O)N[C@@H](CCCCN)C(=O)N[C@@H](CCCCN)C(N)=O)NC(=O)[C@H](CCC(=O)O)NC(=O)CNC1=O [compound 86] (H-G[S5]GKF[S5][Dap]KKKKFSKA[S5]VGE[S5]AKK-NH2; staple 2-6, 16-20) | 2 | 1 | 1 | 32 | 64 | > 200 |
| CC(C)[C@@H]1NC(=O)[C@@](C)(NC(=O)[C@H](CO)NC(=O)[C@H](CCCCN)NC(=O)CNC(=O)[C@H](Cc2ccccc2)NC(=O)[C@H](CCCCN)NC(=O)[C@H](CCCCN)NC(=O)[C@H](CCCCN)NC(=O)[C@H](CCCCN)NC(=O)[C@H](CN)NC(=O)[C@]2(C)CCCC=CCCC[C@](C)(NC(=O)CN)C(=O)NCC(=O)N[C@@H](CCCCN)C(=O)N[C@@H](Cc3ccccc3)C(=O)N2)CCCC=CCCC[C@@](C)(C(=O)N[C@@H](C)C(=O)N[C@@H](CCCCN)C(=O)N[C@@H](CCCCN)C(N)=O)NC(=O)[C@H](CCC(=O)O)NC(=O)CNC1=O [compound 87] (H-G[S5]GKF[S5][Dap]KKKKFGKS[S5]VGE[S5]AKK-NH2; staple 2-6, 16-20) | 4 | 1 | 2 | 64 | 64 | > 200 |
